Experimental data as given in patent US8802597B2, “Herbicidal pyrimidines” (E I du Pont de Nemours and Company, priority 2003, dated 2014).

Tests used:
Test in all cases: Test D pre/postemergence
Type in all cases: in vivo
Conditions in all cases: scale 0 to 100 (100 = complete control)
[1] = system: common chickweed (Stellaria media)
Excerpt: (§1) Seeds of plant species selected from catchweed bedstraw (galium; Galium aparine), common chickweed (Stellaria media), kochia (Kochia scoparia), lambsquarters (Chenopodium album), pigweed (Amaranthus retroflexus), Russian thistle (Salsola kali), wild buckwheat (Polygonum convolvulus), wild mustard (Sinapis arvensis), winter barley (Hordeum vulgare), and wheat (Triticum aestivum) were planted and treated preemergence with test chemicals formulated in a non-phytotoxic solvent mixture which included a surfactant.
(§2) At the same time, plants selected from these crop and weed species were treated with postemergence applications of some of the test chemicals formulated in the same manner. Plants ranged in height from 2 to 18 cm (1- to 4-leaf stage) for postemergence treatments. Treated plants and controls were maintained in a controlled growth environment for 15 to 25 days after which time all species were compared to controls and visually evaluated. Plant response ratings, summarized in Table D, are based on a scale of 0 to 100 where 0 is no effect and 100 is complete control. A dash (-) response means no test result.

[2] = system: pigweed (Amaranthus retroflexus)
Excerpt: as §1, §2

[3] = system: wheat (Triticum aestivum)
Excerpt: as §1, §2

[4] = system: Russian thistle (Salsola kali)
Excerpt: as §1, §2

[5] = system: wild mustard (Sinapis arvensis)
Excerpt: as §1, §2

[6] = system: lambsquarters (Chenopodium album)
Excerpt: as §1, §2

[7] = system: kochia (Kochia scoparia)
Excerpt: as §1, §2

[8] = system: wild buckwheat (Polygonum convolvulus)
Excerpt: as §1, §2

[9] = system: catchweed bedstraw (galium; Galium aparine)
Excerpt: as §1, §2

Structure (SMILES): COC(=O)c1nc(C2CC2)nc(N)c1Br [Compound 2, methyl 6-amino-5-bromo-2-cyclopropyl-4-pyrimidinecarboxylate]
- Plant response rating, Chickweed ([1]; Postemergence, 16 g ai/ha): 60
- Plant response rating, Chickweed ([1]; Postemergence, 31 g ai/ha): 60
- Plant response rating, Chickweed ([1]; Postemergence, 62 g ai/ha): 85
- Plant response rating, Chickweed ([1]; Postemergence, 125 g ai/ha): 85
- Plant response rating, Chickweed ([1]; Preemergence, 16 g ai/ha): 60
- Plant response rating, Chickweed ([1]; Preemergence, 31 g ai/ha): 60
- Plant response rating, Chickweed ([1]; Preemergence, 62 g ai/ha): 75
- Plant response rating, Chickweed ([1]; Preemergence, 125 g ai/ha): 90
- Plant response rating, Pigweed ([2]; Postemergence, 16 g ai/ha): 65
- Plant response rating, Pigweed ([2]; Postemergence, 31 g ai/ha): 85
- Plant response rating, Pigweed ([2]; Postemergence, 62 g ai/ha): 100
- Plant response rating, Pigweed ([2]; Postemergence, 125 g ai/ha): 100
- Plant response rating, Pigweed ([2]; Preemergence, 16 g ai/ha): 65
- Plant response rating, Pigweed ([2]; Preemergence, 31 g ai/ha): 70
- Plant response rating, Pigweed ([2]; Preemergence, 62 g ai/ha): 85
- Plant response rating, Pigweed ([2]; Preemergence, 125 g ai/ha): 100
- Plant response rating, Wheat ([3]; Postemergence, 16 g ai/ha): 70
- Plant response rating, Wheat ([3]; Postemergence, 31 g ai/ha): 70
- Plant response rating, Wheat ([3]; Postemergence, 62 g ai/ha): 100
- Plant response rating, Wheat ([3]; Postemergence, 125 g ai/ha): 100
- Plant response rating, Wheat ([3]; Preemergence, 16 g ai/ha): 45
- Plant response rating, Wheat ([3]; Preemergence, 31 g ai/ha): 60
- Plant response rating, Wheat ([3]; Preemergence, 62 g ai/ha): 70
- Plant response rating, Wheat ([3]; Preemergence, 125 g ai/ha): 70
- Plant response rating, Russian Thistle ([4]; Postemergence, 16 g ai/ha): 65
- Plant response rating, Russian Thistle ([4]; Postemergence, 31 g ai/ha): 85
- Plant response rating, Russian Thistle ([4]; Postemergence, 62 g ai/ha): 95
- Plant response rating, Russian Thistle ([4]; Postemergence, 125 g ai/ha): 100
- Plant response rating, Russian Thistle ([4]; Preemergence, 16 g ai/ha): 85
- Plant response rating, Russian Thistle ([4]; Preemergence, 31 g ai/ha): 100
- Plant response rating, Russian Thistle ([4]; Preemergence, 62 g ai/ha): 100
- Plant response rating, Russian Thistle ([4]; Preemergence, 125 g ai/ha): 100
- Plant response rating, Mustard, Wild ([5]; Postemergence, 16 g ai/ha): 65
- Plant response rating, Mustard, Wild ([5]; Postemergence, 31 g ai/ha): 65
- Plant response rating, Mustard, Wild ([5]; Postemergence, 62 g ai/ha): 70
- Plant response rating, Mustard, Wild ([5]; Postemergence, 125 g ai/ha): 80
- Plant response rating, Mustard, Wild ([5]; Preemergence, 16 g ai/ha): 50
- Plant response rating, Mustard, Wild ([5]; Preemergence, 31 g ai/ha): 70
- Plant response rating, Mustard, Wild ([5]; Preemergence, 62 g ai/ha): 70
- Plant response rating, Mustard, Wild ([5]; Preemergence, 125 g ai/ha): 85
- Plant response rating, Lambsquarters ([6]; Postemergence, 16 g ai/ha): 60
- Plant response rating, Lambsquarters ([6]; Postemergence, 31 g ai/ha): 100
- Plant response rating, Lambsquarters ([6]; Postemergence, 62 g ai/ha): 100
- Plant response rating, Lambsquarters ([6]; Postemergence, 125 g ai/ha): 100
- Plant response rating, Lambsquarters ([6]; Preemergence, 31 g ai/ha): 85
- Plant response rating, Lambsquarters ([6]; Preemergence, 62 g ai/ha): 95
- Plant response rating, Lambsquarters ([6]; Preemergence, 125 g ai/ha): 100
- Plant response rating, Kochia ([7]; Postemergence, 16 g ai/ha): 75
- Plant response rating, Kochia ([7]; Postemergence, 31 g ai/ha): 100
- Plant response rating, Kochia ([7]; Postemergence, 62 g ai/ha): 100
- Plant response rating, Kochia ([7]; Postemergence, 125 g ai/ha): 100
- Plant response rating, Kochia ([7]; Preemergence, 16 g ai/ha): 55
- Plant response rating, Kochia ([7]; Preemergence, 31 g ai/ha): 70
- Plant response rating, Kochia ([7]; Preemergence, 62 g ai/ha): 100
- Plant response rating, Kochia ([7]; Preemergence, 125 g ai/ha): 100
- Plant response rating, Buckwheat, Wild ([8]; Postemergence, 16 g ai/ha): 45
- Plant response rating, Buckwheat, Wild ([8]; Postemergence, 31 g ai/ha): 65
- Plant response rating, Buckwheat, Wild ([8]; Postemergence, 62 g ai/ha): 90
- Plant response rating, Buckwheat, Wild ([8]; Postemergence, 125 g ai/ha): 95
- Plant response rating, Buckwheat, Wild ([8]; Preemergence, 16 g ai/ha): 45
- Plant response rating, Buckwheat, Wild ([8]; Preemergence, 31 g ai/ha): 65
- Plant response rating, Buckwheat, Wild ([8]; Preemergence, 62 g ai/ha): 80
- Plant response rating, Buckwheat, Wild ([8]; Preemergence, 125 g ai/ha): 85
- Plant response rating, Galium ([9]; Postemergence, 16 g ai/ha): 75
- Plant response rating, Galium ([9]; Postemergence, 31 g ai/ha): 100
- Plant response rating, Galium ([9]; Postemergence, 62 g ai/ha): 100
- Plant response rating, Galium ([9]; Postemergence, 125 g ai/ha): 100
- Plant response rating, Galium ([9]; Preemergence, 16 g ai/ha): 80
- Plant response rating, Galium ([9]; Preemergence, 31 g ai/ha): 90
- Plant response rating, Galium ([9]; Preemergence, 62 g ai/ha): 98
- Plant response rating, Galium ([9]; Preemergence, 125 g ai/ha): 100
